Test results from paper PMC12783734, “Carboxymethylcytosine is a natural base modification and a handle for bacteriophage DNA hypermodification” (Nature Communications, 2025).

Molecular target: T1, EcCmoA (Escherichia coli, UniProt P76290)
T1 construct: gene cmoA; E. coli BL21(DE3)
Assay: HPLC / LC-MS of Cx-SAM formation
Format: biochemical
Details: co-substrate prephenate; sodium phosphate pH 6.8; 37 C

T1 sequence (P76290 whole entry): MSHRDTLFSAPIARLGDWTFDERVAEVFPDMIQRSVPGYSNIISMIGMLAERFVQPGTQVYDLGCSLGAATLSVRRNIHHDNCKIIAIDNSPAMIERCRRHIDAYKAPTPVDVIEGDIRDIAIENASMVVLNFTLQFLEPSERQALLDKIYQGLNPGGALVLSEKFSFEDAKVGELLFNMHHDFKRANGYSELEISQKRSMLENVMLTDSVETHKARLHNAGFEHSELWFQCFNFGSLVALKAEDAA

Question: With `C[S+](CC[C@H](N)C(=O)O)C[C@H]1O[C@@H](n2cnc3c(N)ncnc32)[C@H](O)[C@@H]1O` (stereo partly shown) [SAM] as the molecule, how does the “HPLC / LC-MS of Cx-SAM formation” value read?
Answer: Incubation with either SpCmoA or EcCmoA led to a decrease in the SAM peak
